Results taken from patent US11485735B2, “Selective CDK4/6 inhibitor and preparation thereof” (Wuxi Shuangliang Biotechnology Co., Ltd., priority 2019, dated 2022).
Where a name gives a salt, the structure may show the parent alone.

Assays:
CDK4/CyclinD3 = molecular target: T1, CDK4/CyclinD3 (Homo sapiens, UniProt P11802); test: In-vitro kinase inhibitory activity, CDK4/CyclinD3 (Caliper EZ Reader II mobility shift); assay type: biochemical; conditions: CDK4/CyclinD3 20 nM, ATP 2 mM, Peptide 1 μM, 27° C., 180 min; read-out: IC50 (half maximal inhibitory concentration, nM) CDK4
T1 construct: purchased Wuxi Biortus Biosciences Co. Ltd
Description: The final volume for assay was 16 μL, and the reaction temperature was 27° C. CDK4/CyclinD3 was produced by Wuxi Biortus Biosciences Co. Ltd. The concentration of the kinase was determined by the results of the optimization experiment. The kinase was diluted with an assay buffer (50 mM Tris HCl pH 8.0, 0.01% Tween 20, 50 μg/mL BSA, and 5 mM MgCl2) to obtain a corresponding kinase solution (2.4× concentration). The compound was dissolved in dimethyl sulfoxide (DMSO) to reach a concentration of 10 mM. […] 2 μL of the test compound solution was mixed with 5 μL of the kinase solution, and the mixture was incubated for 10 min. 5 μL of the mixed solution of the polypeptide substrate and ATP was then added. The mixture was incubated at 27° C. for 180 min, and then the reaction was terminated by adding 4 μL of EDTA with a concentration of 120 mM to each sample. […] Each assay was conducted in at least two replicates.
(§1) The final concentrations of the reagents in the assay were as follows. […] The reaction mixture was analyzed on a Caliper EZ Reader II by electrophoretic separation of the fluorescent substrate and the phosphorylated product. Data were calculated by using GraphPad Prism version 6.0 and IC50 values were obtained by adjusting the non-linear regression models of the dose response curves.

CDK6/CyclinD3 = molecular target: T2, CDK6/CyclinD3 (Homo sapiens, UniProt Q00534); test: In-vitro kinase inhibitory activity, CDK6/CyclinD3 (Caliper EZ Reader II mobility shift); assay type: biochemical; conditions: CDK6/CyclinD3 20 nM, ATP 2 mM, Peptide 1 μM, 27° C., 120 min; read-out: IC50 (half maximal inhibitory concentration, nM) CDK6
T2 construct: purchased Wuxi Biortus Biosciences Co. Ltd
Description: The final volume for assay was 16 μL, and the reaction temperature was 27° C. […] The compound was dissolved in dimethyl sulfoxide (DMSO) to reach a concentration of 10 mM. […] 2 μL of the test compound solution was mixed with 5 μL of the kinase solution, and the mixture was incubated for 10 min. 5 μL of the mixed solution of the polypeptide substrate and ATP was then added. The mixture was incubated at 27° C. for 120 min, and then the reaction was terminated by adding 4 μL of EDTA with a concentration of 120 mM to each sample. […] Each assay was conducted in at least two replicates.
as §1

CDK2 = CDK2 (Homo sapiens, UniProt P24941); test: In-vitro kinase inhibitory activity, CDK2 (selectivity); assay type: biochemical; conditions: read-out: IC50 (half maximal inhibitory concentration, nM) CDK2
CDK9 = CDK9 (Homo sapiens, UniProt P50750); test: In-vitro kinase inhibitory activity, CDK9 (selectivity); assay type: biochemical; conditions: read-out: IC50 (half maximal inhibitory concentration, nM) CDK9
CRBN = molecular target: T3, CRBN (Homo sapiens, UniProt Q96SW2); test: In-vitro inhibition assay of CRBN activity (fluorescence polarization, Cy5-Thalidomide); assay type: binding; conditions: Cy5-Thalidomide 10 nM, CRBN 180 nM, 27° C., 60 min
T3 construct: purchased Wuxi Biortus Biosciences Co. Ltd
Description: The final volume for assay was 20 μL, and the reaction temperature was 27° C. CRBN was produced by Wuxi Biortus Biosciences Co. Ltd. The concentration of the kinase was determined by the optimization experiment, and the kinase was diluted with an assay buffer (50 mM Tris, pH 7.5, 100 mM NaCl, and 0.01% Pluronic acid) to obtain a corresponding kinase solution (2× concentration). The compound was dissolved in dimethyl sulfoxide (DMSO) to reach a concentration of 10 mM. […] 5 μL of the test compound solution was mixed with 5 μL of the substrate solution, and 10 μL of the kinase solution was added to the mixture. The mixture was incubated at 27° C. for 60 min. Each assay was conducted in at least two replicates. […].
The final concentrations of the reagents in the assay were as follows. […] The data of fluorescence polarization assay were read on TECAN infinite M1000. Data were calculated by using GraphPad Prism version 6.0, and IC50 values were obtained by adjusting the non-linear regression models of the dose response curves.

[1] = system: human colon cancer COLO205 cells; test: Growth inhibition of tumor cells cultured in vitro, CellTiter-Glo, COLO205; assay type: cell-based; conditions: for IC50: Homo sapiens, COLO 205, 72 h, COLO205, 72 h, CellTiter-Glo
Description: (§2) Test drugs: Compounds of the present disclosure. Tumor cell strains: human colon cancer COLO205 cells and human breast cancer MCF-7 cells.
(§3) The growth inhibitory effects on human tumor cells COLO205 and MCF-7 cultured in vitro were observed by using a CellTiter-Glo Luminescent Cell Viability Assay Kit (Promega, Cat. No. G7572). Human tumor cells COLO205 and MCF-7 were both purchased from the American Type Culture Collection.
(§4) CellTiter-Glo Luminescent Cell Viability Assay: The previous cell culture medium was discarded, and the tumor cells were rinsed twice with PBS. An appropriate amount of trypsin (VWR, Cat. No. 0458-25G) was added to digest the tumor cells until most of the cells turned round and were detached from the wall. The trypsin digestion was terminated by adding an RPMI-1640 medium (COLO205; Gibco, Cat. No. A10491-01) containing 10% fetal bovine serum (Hyclone, Cat. No. SV30160.03) and MEM medium (MCF-7; Gibco, Cat. No. 10370-021) containing 10% fetal bovine serum and 0.01 mg/mL insulin, and the cells were gently pipetted with a pipette to completely suspend the tumor cells. After cell counting, a tumor cell suspension was prepared using a complete culture medium and the final concentration was 6.7×10^4 cells/mL. 90 μL of the tumor cell suspension was seeded in each well of a 96-well culture plate (6000 cells/well). The plate was then placed in an incubator with 5% CO2 at 37° C. and incubated for 24 h. A test drug was added by using an Agilent Bravo Automated Liquid Handling Platform, and 10 μL of the sample was added in each well. The assay was conducted in triplicate for each group. A compound of the present disclosure was dissolved in DMSO (BioRoYee, Cat. No. AF0231), and then the resulting solution was diluted to 10 μM/L, 3.33 μM/L, 1.11 μM/L, 0.37 μM/L, 0.123 μM/L, 0.041 μM/L, 0.0137 μM/L, 0.0046 μM/L, and 0.0015 μM/L with the culture medium. The concentration of DMSO was lower than 0.1%, and a culture medium containing 0.1% DMSO was added to the well which was set as a vehicle control group. The 96-well plate was placed in an incubator with 5% CO2 at 37° C. and incubated for 72 h. The 96-well plate to be tested was equilibrated at room temperature for 30 min, and 100 μL of Cell Titer-Glo reagent was added to each well. The contents of each well were mixed in an orbital shaker for 2 min to induce cell lysis, and the plate was incubated at room temperature for 10 min to achieve a constant value of fluorescent intensity. Finally, the chemiluminescence intensity was detected by TECAN M1000. Data were processed with Graphpad Prism 6.0 software. The growth curve of the cells was plotted. The cell growth inhibition rate of a drug was calculated, and the half maximal inhibitory concentration (IC50) of the drug was determined.

[2] = system: human breast cancer MCF-7 cells; test: Growth inhibition of tumor cells cultured in vitro, CellTiter-Glo, MCF-7; assay type: cell-based; conditions: MCF-7, 72 h, CellTiter-Glo
Description: as §2, §3, §4

T3 sequence (Q96SW2 whole entry, species assumed): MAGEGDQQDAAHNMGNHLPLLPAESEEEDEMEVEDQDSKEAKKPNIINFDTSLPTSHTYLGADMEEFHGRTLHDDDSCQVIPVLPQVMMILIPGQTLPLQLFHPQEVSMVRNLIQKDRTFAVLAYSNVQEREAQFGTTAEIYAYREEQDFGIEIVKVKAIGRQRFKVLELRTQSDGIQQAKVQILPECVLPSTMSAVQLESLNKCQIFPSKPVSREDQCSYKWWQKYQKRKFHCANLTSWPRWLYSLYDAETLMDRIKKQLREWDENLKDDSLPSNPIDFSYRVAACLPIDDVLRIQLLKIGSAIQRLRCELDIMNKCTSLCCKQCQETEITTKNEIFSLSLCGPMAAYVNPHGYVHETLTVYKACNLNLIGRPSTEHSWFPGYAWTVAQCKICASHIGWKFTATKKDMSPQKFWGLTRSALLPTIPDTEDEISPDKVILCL
T1 sequence (P11802 whole entry, species assumed): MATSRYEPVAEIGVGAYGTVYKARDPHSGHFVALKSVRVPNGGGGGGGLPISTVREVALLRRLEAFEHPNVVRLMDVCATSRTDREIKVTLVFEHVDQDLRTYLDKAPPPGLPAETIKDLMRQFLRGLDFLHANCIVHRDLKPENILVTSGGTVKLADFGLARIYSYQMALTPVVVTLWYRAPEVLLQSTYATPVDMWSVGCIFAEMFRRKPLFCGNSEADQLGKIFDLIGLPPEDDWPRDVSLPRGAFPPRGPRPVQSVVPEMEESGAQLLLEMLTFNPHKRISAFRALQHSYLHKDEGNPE
T1 sequence (P30281 whole entry partner, species assumed): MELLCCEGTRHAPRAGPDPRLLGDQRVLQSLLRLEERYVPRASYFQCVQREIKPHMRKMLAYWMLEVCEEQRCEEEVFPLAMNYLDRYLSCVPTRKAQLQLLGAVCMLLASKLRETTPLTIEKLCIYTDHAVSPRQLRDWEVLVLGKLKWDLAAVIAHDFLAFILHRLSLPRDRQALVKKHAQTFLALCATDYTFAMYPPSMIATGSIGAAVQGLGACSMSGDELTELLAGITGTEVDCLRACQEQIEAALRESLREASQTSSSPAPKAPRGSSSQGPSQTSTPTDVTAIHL
T2 sequence (Q00534 whole entry, species assumed): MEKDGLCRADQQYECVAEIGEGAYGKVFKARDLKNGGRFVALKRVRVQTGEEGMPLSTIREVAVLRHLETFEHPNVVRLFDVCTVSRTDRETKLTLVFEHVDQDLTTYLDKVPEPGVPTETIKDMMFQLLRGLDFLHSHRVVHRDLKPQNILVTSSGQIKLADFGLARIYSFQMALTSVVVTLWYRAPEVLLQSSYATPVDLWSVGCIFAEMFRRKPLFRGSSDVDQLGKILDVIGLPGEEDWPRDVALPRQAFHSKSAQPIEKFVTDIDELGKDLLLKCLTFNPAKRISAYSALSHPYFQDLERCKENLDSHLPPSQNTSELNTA
T2 sequence (P30281 whole entry partner, species assumed): as the sequence (P30281 whole entry partner, species assumed) above
CDK9, sequence (P50750 whole entry, species assumed): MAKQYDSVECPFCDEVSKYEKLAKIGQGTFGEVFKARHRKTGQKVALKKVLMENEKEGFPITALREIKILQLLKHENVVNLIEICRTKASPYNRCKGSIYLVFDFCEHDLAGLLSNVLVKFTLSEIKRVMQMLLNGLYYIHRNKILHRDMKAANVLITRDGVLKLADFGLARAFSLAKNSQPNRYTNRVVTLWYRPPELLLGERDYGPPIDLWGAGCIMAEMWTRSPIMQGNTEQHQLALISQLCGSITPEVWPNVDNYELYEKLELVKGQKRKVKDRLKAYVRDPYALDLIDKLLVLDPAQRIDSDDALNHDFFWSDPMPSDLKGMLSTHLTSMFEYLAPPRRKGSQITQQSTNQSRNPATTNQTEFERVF
CDK9, sequence (O60563 whole entry partner, species assumed): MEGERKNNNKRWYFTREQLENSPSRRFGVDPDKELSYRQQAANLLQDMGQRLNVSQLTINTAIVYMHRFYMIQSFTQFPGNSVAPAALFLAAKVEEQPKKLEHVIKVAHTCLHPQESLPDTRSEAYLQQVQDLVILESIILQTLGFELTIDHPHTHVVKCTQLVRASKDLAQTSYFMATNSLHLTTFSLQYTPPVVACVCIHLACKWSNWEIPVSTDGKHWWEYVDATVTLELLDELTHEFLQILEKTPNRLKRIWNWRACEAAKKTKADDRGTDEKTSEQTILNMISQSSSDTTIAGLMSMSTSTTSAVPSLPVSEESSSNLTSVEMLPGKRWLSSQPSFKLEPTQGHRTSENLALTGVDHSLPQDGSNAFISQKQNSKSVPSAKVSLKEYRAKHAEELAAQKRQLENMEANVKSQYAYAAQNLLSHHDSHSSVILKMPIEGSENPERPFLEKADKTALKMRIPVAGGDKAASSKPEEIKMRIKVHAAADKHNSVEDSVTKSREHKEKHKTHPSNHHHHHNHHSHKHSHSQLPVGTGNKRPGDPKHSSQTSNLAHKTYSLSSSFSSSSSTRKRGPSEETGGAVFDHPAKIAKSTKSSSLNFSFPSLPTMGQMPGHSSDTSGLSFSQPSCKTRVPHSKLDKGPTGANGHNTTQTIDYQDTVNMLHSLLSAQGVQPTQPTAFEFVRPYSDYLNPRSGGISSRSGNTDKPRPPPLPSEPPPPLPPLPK

Structure (SMILES): CC(=O)c1c(C)c2cnc(Nc3ccc(N4CCN(CCN5CCN(c6ccc7c(c6)CN(C6CCC(=O)NC6=O)C7=O)CC5)CC4)cn3)nc2n(C2CCCC2)c1=O (single isomer, unassigned) [Compound 1, 3-(5-(4-(2-(4-(6-((6-acetyl-8-cyclopentyl-5-methyl-7-oxo-7,8-dihydropyrido[2,3-d]pyrimidin-2-yl)amino)pyridin-3-yl)piperazin-1-yl)ethyl)piperazin-1-yl)-1-oxoisoindolin-2-yl)piperidine-2,6-dione]
- IC50 (CDK4/CyclinD3): 38.8 nM
- IC50 (CDK6/CyclinD3): 21.3 nM
- IC50 (CDK2): > 10000 nM
- IC50 (CDK9): 4180 nM
- IC50 (CRBN): 3000 nM
- IC50 [1]: 45.7 nM
- inhibitory effect on human colon cancer COLO205 cells (in words) ([1]; summary of the table): relatively good inhibitory effects
- IC50 ([2]; Homo sapiens, MCF7, 72 h): > 10000 nM

Structure (SMILES): CC(=O)c1c(C)c2cnc(Nc3ccc(N4CCN(CCN5CCN(c6c(F)cc7c(c6F)CN(C6CCC(=O)NC6=O)C7=O)CC5)CC4)cn3)nc2n(C2CCCC2)c1=O (centres unmarked) [Compound 22, 3-(5-(4-(2-(4-(6-((6-acetyl-8-cyclopentyl-5-methyl-7-oxo-7,8-dihydropyrido[2,3-d]pyrimidin-2-yl)amino)pyridin-3-yl)piperazin-1-yl)ethyl)piperazin-1-yl)-4,6-difluoro-1-oxoisoindolin-2-yl) piperidine-2,6-dione]
- IC50 (CDK4/CyclinD3): 27.4 nM
- IC50 (CDK6/CyclinD3): 18.2 nM
- IC50 (CDK2): > 10000 nM
- IC50 (CDK9): 6220 nM
- IC50 [1]: 87.1 nM
- IC50 [2]: > 10000 nM

Structure (SMILES): CC(=O)c1c(C)c2cnc(Nc3ccc(N4CCN(CC(=O)N5CCC(C(=O)N6CCN(c7ccc8c(c7)CN([C@H]7CCC(=O)NC7=O)C8=O)CC6)CC5)CC4)cn3)nc2n(C2CCCC2)c1=O [Compound 7, (S)-3-(5-(4-(1-(2-(4-(6-((6-acetyl-8-cyclopentyl-5-methyl-7-oxo-7,8-dihydropyrido[2,3-d]pyrimidin-2-yl)amino)pyridin-3-yl)piperazin-1-yl)acetyl)piperidin-4-carbonyl)piperazin-1-yl)-1-oxoisoindolin-2-yl)piperidine-2,6-dione]
- IC50 (CDK4/CyclinD3): 54.7 nM
- IC50 (CDK6/CyclinD3): 30 nM
- IC50 (CDK2): 7480 nM
- IC50 (CDK9): 9920 nM
- IC50 (CRBN): 1420 nM

Structure (SMILES): Cc1nc2c(F)cc(-c3nc(Nc4ccc(CN5CCN(CC(=O)N6CCC(C(=O)N7CCN(c8ccc9c(c8)CN([C@H]8CCC(=O)NC8=O)C9=O)CC7)CC6)CC5)cn4)ncc3F)cc2n1C(C)C [Compound 6, (S)-3-(5-(4-(1-(2-(4-((6-((5-fluoro-4-(4-fluoro-1-isopropyl-2-methyl-1H-benzo[d]imidazol-6-yl)pyrimidin-2-yl)amino)pyridin-3-yl)methyl)piperazin-1-yl)acetyl)piperidin-4-carbonyl)piperazin-1-yl)-1-oxoisoindolin-2-yl)piperidine-2,6-dione]
- IC50 (CDK4/CyclinD3): 24.2 nM
- IC50 (CDK6/CyclinD3): 42.4 nM
- IC50 (CDK2): 1140 nM
- IC50 (CDK9): 946 nM
- IC50 (CRBN): 2510 nM

Structure (SMILES): CC(=O)c1c(C)c2cnc(Nc3ccc(N4CCN(CCN5CCC(CN6CCN(c7ccc8c(c7)CN(C7CCC(=O)NC7=O)C8=O)CC6)CC5)CC4)cn3)nc2n(C2CCCC2)c1=O (single isomer, unassigned) [Compound 3, 3-(5-(4-((1-(2-(4-(6-((6-acetyl-8-cyclopentyl-5-methyl-7-oxo-7,8-dihydropyrido[2,3-d]pyrimidin-2-yl)amino)pyridin-3-yl)piperazin-1-yl)ethyl)piperidin-4-yl)methyl)piperazin-1-yl)-1-oxoisoindolin-2-yl)piperidine-2,6-dione]
- IC50 (CDK4/CyclinD3): 16.1 nM
- IC50 (CDK6/CyclinD3): 14.5 nM
- IC50 (CDK2): 9660 nM
- IC50 (CDK9): 2850 nM
- IC50 (CRBN): 1200 nM

Structure (SMILES): CC(=O)c1c(C)c2cnc(Nc3ccc(N4CCN(CCN5CCC(CC6CCN(c7ccc8c(c7)CN(C7CCC(=O)NC7=O)C8=O)CC6)CC5)CC4)cn3)nc2n(C2CCCC2)c1=O (centres unmarked) [Compound 11, 3-(5-(4-((1-(2-(4-(6-((6-acetyl-8-cyclopentyl-5-methyl-7-oxo-7,8-dihydropyrido[2,3-d]pyrimidin-2-yl)amino)pyridin-3-yl)piperazin-1-yl)ethyl)piperidin-4-yl)methyl)piperidin-1-yl)-1-oxoisoindolin-2-yl)piperidine-2,6-dione dihydrochloride]
- IC50 (CDK4/CyclinD3): 24.6 nM
- IC50 (CDK6/CyclinD3): 21.1 nM
- IC50 (CDK2): 8200 nM
- IC50 (CDK9): 4440 nM
- IC50 [1]: 127 nM
- IC50 ([2]; Homo sapiens, MCF7, 72 h): > 10000 nM

Structure (SMILES): CC(=O)c1c(C)c2cnc(Nc3ccc(N4CCN(CCN5CCC(OC6CCN(c7ccc8c(c7)CN(C7CCC(=O)NC7=O)C8=O)CC6)CC5)CC4)cn3)nc2n(C2CCCC2)c1=O (centres unmarked) [Compound 9, 3-(5-(4-((1-(2-(4-(6-((6-acetyl-8-cyclopentyl-5-methyl-7-oxo-7,8-dihydropyrido[2,3-d]pyrimidin-2-yl)amino)pyridin-3-yl)piperazin-1-yl)ethyl)piperidin-4-yl)oxy)piperidin-1-yl)-1-oxoisoindolin-2-yl)piperidine-2,6-dione dihydrochloride]
- IC50 (CDK4/CyclinD3): 19.2 nM
- IC50 (CDK6/CyclinD3): 14.2 nM
- IC50 (CDK2): > 10000 nM
- IC50 (CDK9): 3510 nM
- IC50 [1]: 247 nM
- IC50 ([2]; Homo sapiens, MCF7, 72 h): > 10000 nM
